Data: patent publication US10179790B2 (THOMAS HELLEDAYS STIFTELSE FOR MEDICINSK FORSKNING, priority 2014, dated 2019)

Tests used:
MTH1 = MTH1 (Homo sapiens, UniProt P36639); assay: MTH1 enzymatic assay and IC50 value determination (malachite green, 96- and 384-well format); format: biochemical; conditions: hydrolysis of dGTP (100 μM), MTH1 6 nM, pyrophosphatase-coupled malachite green, 15 minutes at 22° C.
Outline: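 MTH1 (6 nM) hydrolysed dGTP (100 μM) for 15 min at 22 °C in Tris-acetate buffer with Mg2+, DTT, Tween 20 and excess pyrophosphatase, 1% DMSO. Pi detected with malachite green at 630 nm. IC50 from nonlinear 4-parameter fit of 11–12-point dilution series.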

cancer cell = assay: Cell viability assay (resazurin); format: cell-based; conditions: 72 h; 3 days with compound, resazurin fluorescence; cell line not named
Outline: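 Cells in DMEM GlutaMAX or line-appropriate medium are exposed to compound for 3 days at 37 °C, 5% CO2. Viability is read as resazurin fluorescence (Ex544/Em590) after 2 h incubation. In the 384-well format, cells are seeded onto 11 pre-dispensed concentrations (final DMSO <1%) and read after 3 h resazurin.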

| Structure (SMILES) | IC50 (MTH1) | IC50 (cancer cell) |
| --- | --- | --- |
| Nc1nc(NCCc2ccc(S(N)(=O)=O)cc2)cc(-c2cc(Cl)cc(Cl)c2Cl)n1 [Example 97, 4-[2-[[2-amino-6-(2,3,5-trichlorophenyl)pyrimidin-4-yl]amino]ethyl]benzenesulfonamide] | < 0.2 µM | < 0.5 µM |
| Cc1nc2ccc(NCCNc3cc(-c4cccc(Cl)c4C)nc(N)n3)cc2s1 [Example 101, 6-(3-chloro-2-methyl-phenyl)-N4-[2-[(2-methyl-1,3-benzothiazol-6-yl)amino]ethyl]pyrimidine-2,4-diamine] | < 0.2 µM | < 0.5 µM |
| CC1(C)Nc2cc(NCCNc3cc(-c4cccc(Cl)c4)nc(N)n3)ccc2OC1=O [Example 103, 6-[2-[[2-amino-6-(3-chlorophenyl)pyrimidin-4-yl]amino]ethylamino]-3,3-dimethyl-4H-1,4-benzoxazin-2-one] | < 0.2 µM | < 0.5 µM |
| CC1(C)Nc2cc(NCCNc3cc(-c4cccc(Cl)c4Cl)nc(N)n3)ccc2OC1=O [Example 104, 6-[2-[[2-amino-6-(2,3-dichlorophenyl)pyrimidin-4-yl]amino]ethylamino]-3,3-dimethyl-4H-1,4-benzoxazin-2-one] | < 0.2 µM | < 0.5 µM |
| CS(=O)(=O)c1cccc(NCCNc2cc(-c3cccc(Cl)c3Cl)nc(N)n2)c1 [Example 106, 6-(2,3-dichlorophenyl)-N4-[2-(3-methylsulfonylanilino)ethyl]pyrimidine-2,4-diamine] | < 0.2 µM | < 0.5 µM |
| Cc1c(Cl)cccc1-c1cc(NCCc2ccc(C(N)=NO)cc2)nc(N)n1 [Example 107, 4-[2-[[2-amino-6-(3-chloro-2-methyl-phenyl)pyrimidin-4-yl]amino]ethyl]-N′-hydroxy-benzamidine] | < 0.2 µM | < 0.5 µM |
| Cc1c(Cl)cc(Cl)cc1-c1cc(NCCc2ccc(C(=O)N3CCOCC3)cc2)nc(N)n1 [Example 109, [4-[2-[[2-amino-6-(3,5-dichloro-2-methyl-phenyl)pyrimidin-4-yl]amino]ethyl]phenyl]-morpholino-methanone] | < 0.2 µM | < 0.5 µM |
| CCOC(=O)NC(=O)Nc1ccc(CCNc2cc(-c3cccc(Cl)c3C)nc(N)n2)cc1 [Example 115, ethyl N-[[4-[2-[[2-amino-6-(3-chloro-2-methyl-phenyl)pyrimidin-4-yl]amino]ethyl]phenyl]carbamoyl]carbamate] | < 0.2 µM | < 0.5 µM |
| CCC(C)NC(=O)Nc1ccc(CCNc2cc(-c3cccc(Cl)c3C)nc(N)n2)cc1 (stereo not drawn) [Example 116, 1-[4-[2-[[2-amino-6-(3-chloro-2-methyl-phenyl)pyrimidin-4-yl]amino]ethyl]phenyl]-3-sec-butyl-urea] | < 0.2 µM | < 0.5 µM |
| CCNC(=S)Nc1ccc(CCNc2cc(-c3cccc(Cl)c3C)nc(N)n2)cc1 [Example 117, 1-[4-[2-[[2-amino-6-(3-chloro-2-methyl-phenyl)pyrimidin-4-yl]amino]ethyl]phenyl]-3-ethyl-thiourea] | < 0.2 µM | < 0.5 µM |
| Cc1c(Cl)cccc1-c1cc(NCCc2ccc(NC(=O)OC(C)C)cc2)nc(N)n1 [Example 119, isopropyl N-[4-[2-[[2-amino-6-(3-chloro-2-methyl-phenyl)pyrimidin-4-yl]amino]ethyl]phenyl]carbamate] | < 0.2 µM | < 0.5 µM |
| COCCOC(=O)Nc1ccc(CCNc2cc(-c3cccc(Cl)c3C)nc(N)n2)cc1 [Example 122, 2-methoxyethyl N-[4-[2-[[2-amino-6-(3-chloro-2-methyl-phenyl)pyrimidin-4-yl]amino]ethyl]phenyl]carbamate] | < 0.2 µM | < 0.5 µM |
| Cc1c(Cl)cccc1-c1cc(NCCc2ccc(NC#N)cc2)nc(N)n1 [Example 124, [4-[2-[[2-amino-6-(3-chloro-2-methyl-phenyl)pyrimidin-4-yl]amino]ethyl]phenyl]cyanamide] | < 0.2 µM | < 0.5 µM |
| Cc1cccc(-c2cc(NCCNc3ccnc(N)n3)nc(N)n2)c1C [Example 126, 4-N-(2-{[2-amino-6-(2,3-dimethylphenyl)pyrimidin-4-yl]amino}ethyl)pyrimidine-2,4-diamine] | < 0.2 µM | < 0.5 µM |
| Cc1cccc(-c2cc(NCCNc3ccc(N)nc3)nc(N)n2)c1C [Example 127, 5-N-(2-{[2-amino-6-(2,3-dimethylphenyl)pyrimidin-4-yl]amino}ethyl)pyridine-2,5-diamine] | < 0.2 µM | < 0.5 µM |
| Cc1cccc(-c2cc(NCCNc3ccc(N)cc3F)nc(N)n2)c1C [Example 128, 1-N-(2-{[2-amino-6-(2,3-dimethylphenyl)pyrimidin-4-yl]amino}ethyl)-2-fluorobenzene-1,4-diamine] | < 0.2 µM | < 0.5 µM |
| Cc1c(Cl)cccc1-c1cc(NCCCNc2ccc(C(N)=O)cc2)nc(N)n1 [Example 143, 4-[3-[[2-amino-6-(3-chloro-2-methyl-phenyl)pyrimidin-4-yl]amino]propylamino]benzamide] | < 0.2 µM | < 0.5 µM |
| Cc1nc2ccc(NCCCNc3cc(-c4cccc(Cl)c4C)nc(N)n3)cc2s1 [Example 145, 6-(3-chloro-2-methyl-phenyl)-N4-[3-[(2-methyl-1,3-benzothiazol-6-yl)amino]propyl]pyrimidine-2,4-diamine] | < 0.2 µM | < 0.5 µM |
| Cc1c(Cl)cccc1-c1cc(NCCNc2nccc(C(N)=O)n2)nc(N)n1 [Example 146, 2-[2-[[2-amino-6-(3-chloro-2-methyl-phenyl)pyrimidin-4-yl]amino]ethylamino]pyrimidine-4-carboxamide] | < 0.2 µM | < 0.5 µM |

Continued, values first:

| IC50 (MTH1) | IC50 (cancer cell) | Structure (SMILES) |
| --- | --- | --- |
| < 0.2 µM | < 0.5 µM | Cc1c(Cl)cccc1-c1cc(NCCc2cccc([N+](=O)[O-])c2)nc(N)n1 [Example 95, 6-(3-chloro-2-methylphenyl)-4-N-[2-(3-nitrophenyl)ethyl]pyrimidine-2,4-diamine] |
| < 0.2 µM | < 0.5 µM | Cc1cccc(-c2cc(NCCc3ccc(S(N)(=O)=O)cc3)nc(N)n2)c1Cl [Example 96, 4-[2-[[2-amino-6-(2-chloro-3-methyl-phenyl)pyrimidin-4-yl]amino]ethyl]benzenesulfonamide] |
| < 0.2 µM | < 0.5 µM | Cc1c(Cl)cccc1-c1cc(NCCNc2cccc(S(C)(=O)=O)c2)nc(N)n1 [Example 105, 6-(3-chloro-2-methyl-phenyl)-N4-[2-(3-methylsulfonylanilino)ethyl]pyrimidine-2,4-diamine] |
| < 0.2 µM | < 0.5 µM | Cc1c(Cl)cccc1-c1cc(NCCc2ccc(C(=O)N3CCOCC3)cc2)nc(N)n1 [Example 108, [4-[2-[[2-amino-6-(3-chloro-2-methyl-phenyl)pyrimidin-4-yl]amino]ethyl]phenyl]-morpholino-methanone] |
| < 0.2 µM | < 0.5 µM | Cc1c(Cl)cccc1-c1cc(NCCCNc2cccc(S(C)(=O)=O)c2)nc(N)n1 [Example 110, 6-(3-chloro-2-methyl-phenyl)-N4-[3-(3-methylsulfonylanilino)propyl]pyrimidine-2,4-diamine] |
| < 0.2 µM | < 0.5 µM | Cc1c(Cl)cccc1-c1cc(NCCc2ccc(C(N)=S)cc2)nc(N)n1 [Example 111, 4-[2-[[2-amino-6-(3-chloro-2-methyl-phenyl)pyrimidin-4-yl]amino]ethyl]benzenecarbothioamide] |
| < 0.2 µM | < 0.5 µM | CCNC(=O)Nc1ccc(CCNc2cc(-c3cccc(Cl)c3C)nc(N)n2)cc1 [Example 112, 1-[4-[2-[[2-amino-6-(3-chloro-2-methyl-phenyl)pyrimidin-4-yl]amino]ethyl]phenyl]-3-ethyl-urea] |
| < 0.2 µM | < 0.5 µM | Cc1c(Cl)cccc1-c1cc(NCCc2ccc(NC(=O)NC(C)(C)C)cc2)nc(N)n1 [Example 113, 1-[4-[2-[[2-amino-6-(3-chloro-2-methyl-phenyl)pyrimidin-4-yl]amino]ethyl]phenyl]-3-tert-butyl-urea] |
| < 0.2 µM | < 0.5 µM | C=CCNC(=O)Nc1ccc(CCNc2cc(-c3cccc(Cl)c3C)nc(N)n2)cc1 [Example 114, 1-allyl-3-[4-[2-[[2-amino-6-(3-chloro-2-methyl-phenyl)pyrimidin-4-yl]amino]ethyl]phenyl]urea] |
| < 0.2 µM | < 0.5 µM | Cc1c(Cl)cccc1-c1cc(NCCc2ccc(NC(=O)N3CCOCC3)cc2)nc(N)n1 [Example 118, N-[4-[2-[[2-amino-6-(3-chloro-2-methyl-phenyl)pyrimidin-4-yl]amino]ethyl]phenyl]morpholine-4-carboxamide] |
| < 0.2 µM | < 0.5 µM | Cc1c(Cl)cccc1-c1cc(NCCc2ccc(NC(=O)OCC(C)C)cc2)nc(N)n1 [Example 120, isobutyl N-[4-[2-[[2-amino-6-(3-chloro-2-methyl-phenyl)pyrimidin-4-yl]amino]ethyl]phenyl]carbamate] |
| < 0.2 µM | < 0.5 µM | Cc1c(Cl)cccc1-c1cc(NCCc2ccc(NC(=O)OCC(C)(C)C)cc2)nc(N)n1 [Example 121, 2,2-dimethylpropyl N-[4-[2-[[2-amino-6-(3-chloro-2-methyl-phenyl)pyrimidin-4-yl]amino]ethyl]phenyl]carbamate] |
| < 0.2 µM | < 0.5 µM | CC#CCOC(=O)Nc1ccc(CCNc2cc(-c3cccc(Cl)c3C)nc(N)n2)cc1 [Example 123, but-2-ynyl N-[4-[2-[[2-amino-6-(3-chloro-2-methyl-phenyl)pyrimidin-4-yl]amino]ethyl]phenyl]carbamate] |
| < 0.2 µM | < 0.5 µM | CNS(=O)(=O)c1ccc(NCCCNc2cc(-c3cccc(Cl)c3C)nc(N)n2)cc1 [Example 144, 4-[3-[[2-amino-6-(3-chloro-2-methyl-phenyl)pyrimidin-4-yl]amino]propylamino]-N-methyl-benzenesulfonamide] |
